The values that follow come from patent EP2949653A1, “ISOXAZOLE DERIVATIVES AS LEUKOTRIENE BIOSYNTHESIS INHIBITORS” (Banoglu, Erden, priority 2014, dated 2015).

What is called IC50 is the point on the concentration scale where inhibition reaches its midpoint.

Like-named read-outs stand apart in the source and are kept apart here.

In experiment [1] the test system is 5-LO mediated product formation. The experiment in a line: 5-LO mediated product formation in intact neutrophils stimulated with A23187 (cell-based). Details: species or system human. As to conditions: for IC50: Neutrophil. The protocol:
(§1) Cell based and cell-free assays carried out in biological studies, immunofluorescence microscopy analysis and zymosan-induced peritonitis in mice are performed as described hereinabove (Pegola, C. and et al., British J. Pharmacology, 2014, D01:10.1111/bph.12625). In the cell based assays (intact neutrophils or monocytes), 5-LO mediated product formation is started, after pre-incubation with test compounds (or control DMSO) for 15 min. at 37 °C, with addition of Ca-ionophore A23187 (2.5 µM) to the fresh 5 x 10^6 neutrophils or monocytes suspended in 1 ml of PGC buffer (phosphate buffered saline (PBS) solution containing 1 mg ml^-1 glucose and 1mM CaCl2, pH 7.4). After the incubation for 10 min. at 37 °C, the reaction is ended with addition of 1 ml of methanol, and 30 µL 1 N HCl, 200 ng prostaglandin B1 and 500 µL PBS are added to the mixture. In cell-free assays (isolated 5-LO and cell homogenates), human recombinant 5-LO protein or 40,000g supernatant is added to 1 ml of 5-LO reaction mixture (PBS, pH 7.4, 1 mM EDTA, 1 mM ATP), and then incubated with test compounds (or control DMSO) for 10 min. at 4°C, heated to 37 °C and 2 mM CaCl2 as well as AA at certain concentrations are added. The reaction is ended as described for the cell-based assays. Resulting 5-LO mediated products are extracted and analysed by the known method of high pressure liquid chromatography (HPLC) (Pergola, C. Proc Natl. Acad. Sci. U.S.A. 2008, 105, 19881). 5-LO mediated product formation (LTB4 and all trans isomers, and 5 (S)-hydro(pero)xy-6-trans-8, 11, 14-cis-eicosatetraenoic acid, 5-H(p)ETE) is expressed as ng per 10^6 cell. Cysteinyl-LTs have not been analyzed because that the amount of C4, D4 and E4 and LTB4 oxidation products are below the detection limit.
Compounds were tested in intact human neutrophils stimulated with 2.5 µM A23187 under cell based conditions and on purified 5-LO under cell free conditions. ^aData are given as remaining activity as a percentage of control (100%) at 10 µM or 1 µM inhibitor concentrations (means ± SE, n = 3-6).
Compound 9hj inhibited 5-LO mediated product formation with IC50 of 60 nM in human neutrophils. Neutrophils are stimulated with Ca-ionophore A23187 (2.5 µM), without the addition of exogenous arachidonic acid (AA), after pre-incubation with 9hj or vehicle (0.1 % DMSO). 100% controls correspond to 275.7 ng mL^-1 of 5-LO mediated products (Figure 1).
100% controls correspond to 328.97 ng mL^-1 of 5-LO mediated products.

Experiment [2] has as its system 5-LO mediated product synthesis. In words: 5-LO mediated product synthesis in neutrophils stimulated with LPS plus fMLP. In kind it is cell-based. As to conditions: Homo sapiens, Neutrophil.
Experiment [3] has the same test system. In words: 5-LO mediated product synthesis in neutrophils under cell-stress (NaCl or diamide). The class given is cell-based. As to conditions: in the presence of cell-stress (0.3 M NaCl or 0.25 mM diamide), human neutrophils (Figure 4A-B). As to the method: Inhibitory activity of compound 9hj on 5-LO mediated product synthesis in human neutrophils is shifted to the right by factor 10 in the presence of cell-stress (i.e., 0.3 M NaCl or 0.25 mM diamide), which is typical for non-redox type 5-LO inhibitors or FLAP inhibitors (Figure 4A-B). To intact neutrophils, 0.3 M sodium chloride (NaCl) or vehicle (DMSO) was added 3 min before addition of 9hj at 37°C. After addition of 9hj for another 10 min at 37°C, cells were stimulated with 20 µM AA for 10 min at 37°C. Data are expressed as percentage of vehicle control (0.1% DMSO). 100% controls correspond to 174.41 ng mL^-1 for 0.3 M NaCl and 50.73 ng mL^-1 for control (DMSO) (Figure 4A). To intact neutrophils, 0.25 mM diamide or vehicle (DMSO) was added 5 min before addition of 9hj at 37°C (Figure 4b). After addition of 9hj for another 15 min at 37°C, cells were stimulated with 2.5 µM A23187 plus 20 µM AA for 10 min at 37°C. Data are expressed as percentage of vehicle control (0.1% DMSO). 100% controls correspond to 1148.61 ng mL^-1 for 0.25 mM diamide and 802.06 ng mL^-1 for control (DMSO) (Figure 4B).

For experiment [4], the system named is zymosan-induced peritonitis. In words: Zymosan-induced peritonitis in mice. In kind it is in vivo. As to conditions: i.p., male mice, 30 min before zymosan; LTC4 levels in peritoneal exudate (Figure 9). As to the method:
as §1, with “In cell-free assays (isolated 5-LO and cell homogenates), human recombinant 5-LO protein or 40,000g supernatant is added to 1 ml of 5-LO reaction mixture (PBS, pH 7.4, 1 mM EDTA, 1 mM ATP), and then incubated with test compounds (or control DMSO) for 10 min. at 4°C, heated to 37 °C and 2 mM CaCl2 as well as AA at certain concentrations are added. The reaction is ended as described for the cell-based assays.” left out, “limit. […]” for “limit.”

On to `O=C(O)c1noc(-c2ccc(OCc3ccc4ccccc4n3)cc2)c1-c1ccc(Cl)cc1` [Compound 9hj, 4-(4-Chlorophenyl)-5-(4-(quinolin-2-ylmethoxy)phenyl)isoxazole-3-carboxylic acid], for which the IC50 was determined as 0.06 µM in experiment [1] (Homo sapiens, A23187 (2.5 µM), without exogenous AA, vehicle 0.1 % DMSO (Figure 1), read-out: IC50 5-LO mediated product formation in human neutrophils); 0.24 µM in experiment [1] (intact human neutrophils stimulated with 2.5 µM A23187, mean ± SE, n = 3-4, read-out: Inhibition of purified 5-LO activity IC50 (µM) cell based); 10 nM in experiment [2]. Also, the activity at 1 µM in experiment [1] (PMNL, remaining activity at 1 µM inhibitor, human neutrophils, 2.5 µM A23187, means ± SE, n = 3-6, read-out: 5-LO mediated product formation in intact neutrophils (PMNL) (% of control) at 1 µM) amounted to 12.1 ± 5.26%. In addition, in experiment [1] (PMNL, remaining activity at 10 µM inhibitor, human neutrophils, 2.5 µM A23187, means ± SE, n = 3-6, read-out: 5-LO mediated product formation in intact neutrophils (PMNL) (% of control) at 10 µM), the activity at 10 µM is 2.73 ± 1.41%. In addition, in experiment [3], the “Inhibitory activity shifted to the right by factor” value is listed as 10. Further, in experiment [4], the ID50 zymosan-induced peritonitis stood at 7 mg/kg.
